Where two headings read alike, the source gives them in different places. One block for each compound: values may come before it.
How the values were obtained:
guppies = test: Fish toxicity test (Test Example 4); format: in vivo; conditions: concentration killing 50% of female guppies during 48 hours, 20° C.; [Mixture] = cis/trans 50/50
Method: The mixture was stirred well to prepare a test water. Ten female guppies from 3 to 4 months of age were released into the test water and maintained at 20° C. The concentration of the test compound at which 50% of the guppies were killed during the ensuring 48 hours was determined. [This concentration is referred to as TLm (medium tolerance limit, ppm)].
A rank corresponds to TLm of not less than 10 ppm.
B rank corresponds to TLm of 0.5-10 ppm.
C rank corresponds to TLm of not more than 0.5 ppm.

[1] = Light stability test (Test Example 3); format: physicochemical; conditions: glass plate, uv light
Method: Into 2.0 ml of acetone were dissolved 80 mg of each test compound. A 5 μl portion of the solution was taken and spread on a glass plate (Micro Standard Cover Glass, 18 m/m No. 1, 200 pcs, Matsunami Glass Ind., Ltd.) and the acetone was evaporated. The specimen was exposed to ultraviolet light from a fluorescent lamp (Tokyo Shibaura Electric Co., Ltd., FL20BL, glow-type, 100 V, 24.5 W, wavelength=3600 A) which was fixed just above the specimen at a distance of 11 cm at a temperature of 31°-35° C. for a predetermined exposure time. The test liquid was washed away with 1.0 ml of methanol containing 0.04% of dioctyl phthalate as an internal reference and high-speed liquid chromatography was carried out on the washings to determine the residual amount of the test compound.

[2] = tested on: houseflies (Musca domestica); test: Mortality test against houseflies by the settling mist method (Utility Examples 2 and 3); format: in vivo; conditions: cis/trans 50/50, 24 hours
Method: 0.2 part of each of Compounds (1) to (38) was prepared and 0.8 part of piperonyl butoxide was added to each of them. To this mixture was added a sufficient amount of kerosene to make 100 parts, followed by stirring. By this procedure there was obtained an oil preparation of each Compound.
To 0.1 part of each of Compounds (1) to (38) was added 0.08 part of permethrin, followed by the addition of a sufficient amount of kerosene to make 100 parts. The mixture was stirred to obtain an oil preparation of each compound.
(§1) By the settling mist method, a mortality test against houseflies, (Musca domestica) was carried out using the oil preparations obtained according to Formulation Example 1 from Compounds (1), (5), (7), (9), (11) and (15) [Each compound is a mixture of cis- and trans-isomer in a ratio 50/50]. After 24 hours, the flies were examined for deaths. The mortality (%) was not less than 90% for each of Compounds (1), (5), (7), (9), (11) and (15).
as §1, with “against houseflies” for “against houseflies, (Musca domestica)”, “obtained in” for “obtained according to”, “Example 3” for “Example 1”, “(9), (11), (12), (15), (17)” for “(9), (11)”, “and (28)” for “and (15)”, “and (28).” for “and (15).”

green rice leafhoppers = test: Mortality of green rice leafhoppers on sprayed rice seedlings (Utility Example 1); conditions: green rice leafhopper, in vivo, 24 h
Method: To 30 parts of each of Compounds (1) to (38) were added 50 parts of xylene and 20 parts of Sorpol SM-200 (a surfactant, trademark of Toho Chemical Co., Ltd.). The mixture was stirred well and dissolved to obtain a 30% emulsifiable concentrate.
The emulsifiable concentrate prepared from Compounds (7), (11), (12), (15), (17), (21) and (22) [Each compound is a mixture of cis- and trans-isomer in a ratio of 50/50] in Formulation Example 5 were each diluted 300-fold with water. Then, each of the dilutions was sprayed over rice seedlings 25 days after sowing at the rate of 10 ml/pot. The pot was covered with a wire net and 15 green rice leafhoppers were released under the net. After 24 hours, the leafhoppers were examined for deaths. The mortality (%) was not less than 90% for each of Compounds (7), (11), (12), (15), (17), (21) and (22).

[3] = tested on: housefly (Musca domestica); test: Mortality test against houseflies by topical application (Test Example 1); format: in vivo; conditions: 24 h
Method: Each test compound was accurately weighed and a 1% solution and an 0.1% solution of the sample in acetone were prepared. A 1 μl portion of either of the above solutions was micropipetted onto the thoracic dorsal part of each female adult housefly (Musca domestica) under ether anaesthesia and the fly was released in a high-walled dish together with feed. The dish was covered with a metal-wire net and maintained at 25° C. After 24 hours, the test flies were inspected for deaths and the mortality (%) was calculated. Thirty test flies were used per concentration group.

[4] = oil preparation of Formulation Example 1 (0.2 part compound + 0.8 part piperonyl butoxide)
[5] = oil preparation of Formulation Example 3 (0.1 part compound + 0.08 part permethrin)
[6] = exposure time 3.5 hours, ultraviolet light 3600 A, 31°-35° C., [Mixture] = cis/trans 50/50, read-out: Residue (%)
[7] = exposure time 3 days, ultraviolet light 3600 A, 31°-35° C., [Mixture] = cis/trans 50/50, read-out: Residue (%)

SMILES: CC1(C)[C@H](C(=O)OC(C(N)=S)c2cccc(Oc3ccccc3)c2)[C@@H]1CC(Cl)(Cl)Cl (stereo partly drawn) [(27) [Cis-isomer], 3-Phenoxy-α-thiocarbamoylbenzyl 2,2-dimethyl-3-(2,2,2-trichloroethyl)cyclopropanecarboxylate]
TLm (medium tolerance limit) (guppies): A (A rank corresponds to TLm of not less than 10 ppm.)

remaining at 3.5 h [1]: 16%
remaining at 72 h [1]: 0%
SMILES: CC1(C)C(CC(Cl)(Cl)Cl)C1C(=O)OCN1C(=O)C2=C(CCCC2)C1=O (centres unmarked) [(37) [Mixture], 3,4,5,6-Tetrahydrophthalimidomethyl 2,2-dimethyl-3-(2,2,2-trichloroethyl)cyclopropanecarboxylate]

SMILES: CC(Cl)(Cl)CC1C(C(=O)OC(C#N)c2cccc(Oc3ccccc3)c2)C1(C)C (stereo not drawn) [Compound (9), 3-Phenoxy-α-cyanobenzyl 2,2-dimethyl-3-(2,2-dichloropropyl)cyclopropanecarboxylate]
mortality (%) [2, 4]: not less than 90%
mortality (%) [2, 5]: not less than 90%

SMILES: CC1(C)C(CC(Cl)(Cl)Cl)C1C(=O)OC(C#N)c1cccc(OC=C(Cl)Cl)c1 (stereo not drawn) [(34) [Mixture], 3-(2,2-dichlorovinyloxy)-α-cyanobenzyl 2,2-dimethyl-3-(2,2,2-trichloroethyl)cyclopropanecarboxylate]
remaining at 3.5 h [1, 6]: 100%
remaining at 72 h [1, 7]: 88%
remaining at 120 h ([1]; exposure time 5 days, ultraviolet light 3600 A, 31°-35° C., [Mixture] = cis/trans 50/50, read-out: Residue (%)): 44%

SMILES: C#CC(OC(=O)C1C(CC(Cl)(Cl)Cl)C1(C)C)c1cccc(Oc2ccc(Cl)cc2)c1 (stereo not drawn) [(21), 3-(4-Chlorophenoxy)-α-ethynylbenzyl 2,2-dimethyl-3-(2,2,2-trichloroethyl)cyclopropanecarboxylate]
mortality (%) (green rice leafhoppers): not less than 90%

remaining at 3.5 h [1]: 100%
remaining at 72 h [1]: 78%
remaining at 120 h [1]: 56%
SMILES: C#CC(OC(=O)C1C(CC(Cl)(Cl)Cl)C1(C)C)c1cccc(Oc2ccc(Cl)cc2)c1 (stereo not drawn) [(21) [Mixture], 3-(4-Chlorophenoxy)-α-ethynylbenzyl 2,2-dimethyl-3-(2,2,2-trichloroethyl)cyclopropanecarboxylate]

remaining at 3.5 h [1]: 21%
remaining at 72 h [1]: 0%
SMILES: C=CCC1=C(C)C(OC(=O)C2C(CC(Cl)(Cl)Cl)C2(C)C)CC1=O (centres unmarked) [(38) [Mixture], Allethronyl 2,2-dimethyl-3-(2,2,2-trichloroethyl)cyclopropanecarboxylate]

SMILES: CC1(C)[C@H](CC(Cl)(Cl)Cl)[C@H]1C(=O)OC(C#N)c1cccc(Oc2ccccc2)c1 (relative stereo) [(7) [Trans-isomer], 3-Phenoxy-α-cyanobenzyl 2,2-dimethyl-3-(2,2,2-trichloroethyl)cyclopropanecarboxylate]
mortality at 1 µg/fly [3]: 96.7%
mortality at 10 µg/fly [3]: 100%

SMILES: C#CC(OC(=O)C1C(CC(Br)(Br)Br)C1(C)C)c1cccc(Oc2ccccc2)c1 (stereo not drawn) [Compound (12), 3-Phenoxy-α-ethylnylbenzyl 2,2-dimethyl-3-(2,2,2-tribromoethyl)cyclopropanecarboxylate]
mortality (%) (green rice leafhoppers): not less than 90%

SMILES: CC(Cl)(Cl)CC1C(C(=O)OCc2cccc(Oc3ccccc3)c2)C1(C)C (centres unmarked) [Compound (5), 3-Phenoxybenzyl 2,2-dimethyl-3-(2,2-dichloropropyl)cyclopropanecarboxylate]
mortality (%) [2, 4]: not less than 90%
mortality (%) [2, 5]: not less than 90%

SMILES: CC1(C)C(CC(Cl)(Cl)Cl)C1C(=O)OCc1cccc(Oc2ccccc2)c1 (centres unmarked) [(1), 3-Phenoxybenzyl 2,2-dimethyl-3-(2,2,2-trichloroethyl)cyclopropanecarboxylate]
mortality (%) [2, 4]: not less than 90%
mortality (%) [2, 5]: not less than 90%

SMILES: CC1(C)C(CC(Cl)(Cl)Cl)C1C(=O)OCc1coc(Cc2ccccc2)c1 (centres unmarked) [(28) [Mixture], 5-Benzyl-3-furylmethyl 2,2-dimethyl-3-(2,2,2-trichloroethyl)cyclopropanecarboxylate]
remaining at 3.5 h [1]: 5%
remaining at 72 h [1]: 0%

remaining at 3.5 h [1]: 97%
remaining at 72 h [1]: 91%
remaining at 120 h [1]: 85%
SMILES: CC1(C)[C@H](C(=O)OCc2cccc(Oc3ccccc3)c2)[C@@H]1CC(Cl)(Cl)Cl (relative stereo) [(1) [Cis-isomer], 3-Phenoxybenzyl 2,2-dimethyl-3-(2,2,2-trichloroethyl)cyclopropanecarboxylate]

SMILES: C=CCC1=C(C)C(OC(=O)C2C(C=C(C)C)C2(C)C)CC1=O (centres unmarked) [Allethrin, allethrin, reference compound]
remaining at 3.5 h [1, 6]: 14%
remaining at 72 h [1, 7]: 0%

SMILES: CC1(C)C(CC(Cl)(Cl)Cl)C1C(=O)OCc1coc(Cc2ccccc2)c1 (centres unmarked) [(28), 5-Benzyl-3-furylmethyl 2,2-dimethyl-3-(2,2,2-trichloroethyl)cyclopropanecarboxylate]
mortality (%) [2, 5]: not less than 90%

remaining at 3.5 h [1]: 100%
remaining at 72 h [1]: 93%
remaining at 120 h [1]: 96%
SMILES: CC1(C)C(CC(Cl)(Cl)Cl)C1C(=O)OC(C#N)c1cccc(Oc2ccc(Cl)cc2)c1 (stereo not drawn) [(15) [Mixture], 3-(4-Chlorophenoxy)-α-cyanobenzyl 2,2-dimethyl-3-(2,2,2-trichloroethyl)cyclopropanecarboxylate]

remaining at 3.5 h [1]: 100%
remaining at 72 h [1]: 84%
remaining at 120 h [1]: 75%
SMILES: CC1(C)C(CC(Cl)(Cl)Cl)C1C(=O)OC(C#N)c1cccc(Oc2ccccc2)c1 (stereo not drawn) [(7) [Mixture], 3-Phenoxy-α-cyanobenzyl 2,2-dimethyl-3-(2,2,2-trichloroethyl)cyclopropanecarboxylate]

SMILES: CC1(C)C(CC(Cl)(Cl)Cl)C1C(=O)OC(C#N)c1cccc(Oc2ccc(Br)cc2)c1 (stereo not drawn) [(17), 3-(4-Bromophenoxy)-α-cyanobenzyl 2,2-dimethyl-3-(2,2,2-trichloroethyl)cyclopropanecarboxylate]
mortality (%) [2, 5]: not less than 90%

SMILES: CC1(C)C(C=C(Cl)Cl)C1C(=O)OCc1cccc(Oc2ccccc2)c1 (mixture of isomers) [Permethrin, 3-phenoxybenzyl(+)-cis,trans-2,2-dimethyl-3-(2,2-dichlorovinyl)cyclopropanecarboxylate, reference compound]
TLm (medium tolerance limit) (guppies): C (C rank corresponds to TLm of not more than 0.5 ppm.)

remaining at 3.5 h [1]: 100%
remaining at 72 h [1]: 71%
remaining at 120 h [1]: 65%
SMILES: C#CC(OC(=O)C1C(CC(Cl)(Cl)Cl)C1(C)C)c1cccc(Oc2ccccc2)c1 (stereo not drawn) [(11) [Mixture], 3-Phenoxy-α-ethynylbenzyl 2,2-dimethyl-3-(2,2,2-trichloroethyl)cyclopropanecarboxylate]

SMILES: C#CC(OC(=O)[C@@H]1[C@H](CC(C)(Cl)Cl)C1(C)C)c1cccc(Oc2ccccc2)c1 (relative stereo) [(13) [Cis-isomer], 3-Phenoxy-α-ethynylbenzyl 2,2-dimethyl-3-(2,2-dichloropropyl)cyclopropanecarboxylate]
remaining at 3.5 h [1]: 100%
remaining at 72 h [1]: 88%
remaining at 120 h [1]: 73%
TLm (medium tolerance limit) (guppies): A (A rank corresponds to TLm of not less than 10 ppm.)
